# Results published in patent US20130096185A1, “INACTIVATION OF miR-34a BY ABERRANT CpG METHYLATION IN CANCER” (priority 2008, published 2013).
# System: miR-34a promoter
# Assay: Bisulfite sequencing of miR-34a promoter CpG methylation after 5Aza-2′dC treatment
# Type: cell-based, human
# Details: LAPC-4 cells
# Text: (a) Pattern of CpG methylation in the miR-34a promoter region in prostate epithelial cells and derived cancer cell lines. The depicted region corresponds to 2.5 kbp upstream of the transcriptional start site (TSS, position indicated by arrow). Vertical bars represent CpG-dinucleotides. The position of the p53 binding site is indicated. The horizontal bars indicate amplified PCR products which were sub-cloned and analyzed by sequencing (gray: distal fragment, black: proximal fragment). The combined results obtained by sequencing of 8 independent subclones are shown for each cell line. Black areas represent the degree of cytosine methylation at the respective CpG position. The white shaded areas indicate methylation after treatment of LAPC-4 cells with 5Aza-2′dC. The open rectangles correspond to the regions covered by the MSP primers. IVM DNA was used as positive control for amplification of the M product. BPH1: benign prostate hyperplasia cells immortalized with SV40 large T antigen. IVM: in vitro methylated DNA.
# Reversion of genomic methylation. Cells were grown in the presence of 1 μM 5-aza-2′deoxycytidine (5Aza-2′dC, Sigma) for 72 hours and 300 nM trichostatin A (TSA, Sigma) for the last 24 hours. […]
# Bisulfite sequencing. […] For each cell line at least 8 individual clones were sequenced on both strands using M13 primers and BigDye terminator, and analyzed on a 3700 capillary sequencer (Applera).
smiles,measurement,value
"Nc1ncn([C@H]2C[C@H](O)[C@@H](CO)O2)c(=O)n1 [5Aza-2′dC, 5-aza-2′deoxycytidine]",level of CpG methylation of miR-34a,reduction in the level of CpG methylation
